# Assay results from US20120283293A1, “Methods of neuroprotection involving Prostaglandin E2 EP4 (PGE2 EP4) receptor activation” (The Board of Trustees of the Leland Stanford Junior …, priority 2011, published 2012).
# Assays:
# [1] = test system: Akt phosphorylation in BV-2 cells; experiment: phospho-Akt quantitative Western (Ser473) and ELISA (Thr308) in LPS-treated BV-2 cells; type: cell-based, murine
# Experimental: Nuclear and cytoplasmic fractions of BV-2 cells were prepared at several time points after treatment (0-120 minutes) using the nuclear extract kit from Active Motif (Carlsbad, Calif.). Briefly, cells were washed, collected in ice-cold PBS in the presence of phosphatase inhibitors, and centrifuged at 300×g for 5 min at 4° C. Cell pellets were resuspended in hypotonic buffer, treated with detergent, and centrifuged at 14,000×g for 30 sec at 4° C. After collection of the cytoplasmic fraction, nuclei were solubilized for 30 min in lysis buffer containing protease inhibitors. Lysates were centrifuged at 14,000×g for 30 min at 4° C. and supernatants were collected for NF-κB studies. To prepare whole cell lysates for phospho-Akt and phospho-IKK studies, cells were washed in ice-cold PBS and lysed in 20 mM Tris-HCl, pH 7.5, 150 mM NaCl, 1 mM Na2EDTA, 1 mM EGTA, 1% Triton, 2.5 mM sodium pyrophosphate, 1 mM β-glycerophosphate, 1 mM orthovanadate, 1 μg/ml leupeptin and 1 mM PMSF. Lysates were sonicated for 5 seconds, centrifuged at 14,000×g for 10 min at 4° C. and supernatants were collected for phospho-Akt and phospho-IKK studies. All protein concentrations were determined using the Bradford protein assay.
# Western blot analysis. […] Immunoreactivity was detected using either sheep anti-rabbit or sheep anti-mouse HRP-conjugated secondary antibody (Amersham Biosciences, Arlington Heights, Ill.), followed by enhanced chemiluminescence (Pierce). Autoradiographic signals were quantified using NIH Image. […]
# Measurements of phospho-Akt and total Akt were determined using the PathScan phospho-Akt (Thr308) and total Akt1 ELISA kits (Cell Signaling Technology, Danvers, Mass.). […]
# In addition to its known Gas coupling to PKA, the EP4 receptor can signal via PI3K and Akt via a Gαi subunit (Fujino et al., 2002; Fujino & Regan, 2006). To further investigate whether EP4 signaling modulates PI3K/Akt pathway activity in LPS-stimulated BV-2 cells, levels of phospho-Akt were measured using quantitative Western analysis (phosphorylated Ser473 Akt; FIG. 3C) and ELISA (phosphorylated Thr308 Akt; FIG. 3D). […]
# [2] = test system: plasma cytokine and chemokine levels; experiment: plasma multi-analyte analysis in LPS-stimulated mice; type: in vivo, mouse; settings: LPS 5 mg/kg i.p., AE1-329 300 μg/kg s.c.
# Experimental: The murine in vivo studies were conducted in accordance with the National Institutes of Health guidelines for the use of experimental animals and protocols were approved by the Institutional Animal Care and Use Committee. C57B6 EP4 floxed mice (Schneider et al., 2004) were kindly provided by Drs. Richard and Matthew Breyer (Vanderbilt University School of Medicine, Nashville, Tenn.), and C57B6 Cd11bCre mice (Boillee et al., 2006) were kindly provided by Dr. G. Kollias (Alexander Fleming Biomedical Sciences Research Center, Vari, Greece) and Dr. Donald Cleveland (UCSD, San Diego, Calif.). All mice were housed in an environment controlled for lighting (12 hour light/dark cycle), temperature, and humidity, with food and water available ad libitum. Cd11bCre:EP4f/f and Cd11bCre:EP4+/+ mice were generated by serial crosses of C57B6 Cd11bCre and EP4f/f and EP4+/+ lines. Male Cd11bCre: EP4f/f and Cd11bCre: EP4+/+ mice were treated with either saline or LPS (5 mg/kg intraperitoneally: n=5-8 per group, 13 months of age). 24 hours after injection, mice were euthanized and brain tissue was harvested and frozen at −80° C. For pharmacological experiments, C57B6 male mice (Jackson Laboratories, Bar Harbor, Me.; n=7 or 8 per group) received an injection of saline or LPS (5 mg/kg, i.p.+/−vehicle or AE1-329 ([…]) (Qin et al., 2007; Nagamatsu et al., 2006). Mice were euthanized 6 hours later, and brain tissue was harvested and frozen at −80° C. For collection of plasma, C57B6 male mice (n=5 per group) received an injection of saline or LPS (5 mg/kg, i.p.)+/−AE1-329 ([…].) or vehicle. […] Plasma was collected after centrifugation at 1000×g for 10 min at 4° C. and frozen at −80° C.
# Plasma was analyzed using the Rodent MAP™ Antigens, Version 2.0 multi-analyte profile (Rules Based Medicine, Austin, Tex.) that screens a total of 59 blood secreted proteins using multiplex fluorescent immunoassay.
# Data are presented as mean±standard error of the mean and analyzed using analysis of variance or Student's t test. Prism software (GraphPad Software, Inc. San Diego, Calif.) was used for statistical analyses. Data for Griess assays and quantitative Western analyses were analyzed using one-way or two-way ANOVA, followed by Newman-Keuls multiple comparison or Bonferroni posttest analysis, respectively. For plasma multi-analyte analysis, the concentrations of the 15 plasma proteins that reached statistical significance between LPS+vehicle versus LPS+AE1-329 cohorts were transformed to relative concentrations (Median Z-score). Cluster analysis (Gene Cluster3.0, University of Tokyo, Tokyo and Java TreeView 1.0.13, Alok Saldanda, Calif.) produced a separation of samples according to treatment group and protein levels in plasma. […]
smiles,measurement,setting,value
COCc1ccccc1CC[C@H](O)/C=C/[C@H]1[C@H](O)CC(=O)[C@@H]1SCCCSCC(=O)O [AE1-329],"Akt phosphorylation, agonist alone","[1]; BV-2 cells, in the absence of LPS",did not alter Akt phosphorylation
same,phospho-Ser473 Akt signal (quantitative Western),"[1]; LPS (100 ng/ml) treated BV-2 cells, AE1-329 100 nM, over 60 minutes",significant attenuation
same,"phospho-Thr308 Akt (ELISA, p-Akt/Akt)","[1]; LPS-treated BV-2 cells, AE1-329 100 nM, 60 minutes",significant decrease
same,plasma levels of IL-10,[2]; 3 hours,significantly increased plasma levels
same,"plasma levels of TNF-α, IL-1α, eotaxin, MDC, MIP-1α, MIP-1β, MIP-1γ, MIP-2, MCP-1, MCP-3 and MCP-5",[2]; 3 hours,significantly decreased levels
same,plasma myeloperoxidase,[2]; 3 hours,reduced secreted levels
same,plasma levels of IL-6 and LIF,[2]; printed 'at 6 h',trend towards decreased levels
